Values quoted from earlier work, collected in patent US12109304B1, “Oral patch for treating mouth ulcers” (Xiamen LP Pharmaceutical Co., Ltd., priority 2023, dated 2024).

**Q.** Which “Solubility in ethanol / alcohol” value (ethanol (alcohol)) does the source give for `CCCCNc1ccc(C(=O)OCCN(C)C)cc1.Cl` [Tetracaine hydrochloride] here?
**A.** soluble

**Q.** What about the Solubility in water (water) of the same molecule?
**A.** soluble
